US6156291A, “Chemical and pharmacological standardization of herbal extracts” (CV Technologies Inc., priority 1998, dated 2000)
Entries after “also recorded” stand apart in the source; their conditions may differ.

What was measured:
[1] = system: rat brain synaptosomes; experiment: choline uptake in rat brain synaptosomes; format: biochemical; conditions: for effect on choline uptake (FIG. 1): various doses, rat brain synaptosomes
Excerpt: (1) Effects of CVT-E001 on choline uptake in isolated brain synaptosomes in rats
(§1) Choline uptake has been examined in synaptosome preparations from whole brain and hippocampus in the presence of Rb1, CVT-E001 and HC3.
The magnitude of these effects are consistent with the previous studies.

[2] = system: rat brain synaptosomes; conditions: literature (Benishin, 1992); Rb1 positive control, HC3 negative control; cited from earlier work
[3] = system: synaptosomes prepared from rat hippocampus; experiment: choline uptake into synaptosomes prepared from rat hippocampus; format: biochemical; conditions: Table 2
Excerpt: as §1
This observation is not unexpected as many pharmacological compounds have an optimal dose range and more or less of the material results in less biological activity.

[4] = system: dorsal and sympathetic ganglia; conditions: literature (Saito 1985), cited from earlier work; for neurite outgrowth by NGF: in presence of NGF; for neurite outgrowth without NGF: on its own
[5] = pure ginsenosides; literature; cited from earlier work
[6] = Morris Water Maze and Scopolamine induced Amnesia Model; format: in vivo, rat
Excerpt: As CVT-E001 is a mixture of ginsenosides, it may not have the same properties as pure saponins. […] Rats are required to learn the location of a hidden platform in a murky swimming pool. […] The effects of CVT-E001 on memory can also be examined in scopolamine induced amnesia (scopolamine interferes with the cholinergic neurotransmitter system and impedes learning and memory). If CVT-E001 enhances learning and/or memory it should facilitate task acquisition and/or protect against memory loss in scopolamine treated animals.
A study was designed of spatial learning and memory using the Morris water maze and scopolamine induced amnesia with CVT-E001 as the test compound. The specific aim of the experiment was to test if CVT-E001 affected the acquisition and/or retention of a new task in the presence of scopolamine induced amnesia. Rats (S/D strain males, 200-250 g, about 8 weeks old) are initially divided into two groups and fed either water (0.5 ml) or CVT-E001 (200 mg/kg/day in 0.5 ml water by gavage) for the duration of the experiment. Eight days after the initiation of CVT-E001 administration rats are given the task of learning the position of a platform hidden in a pool of murky water. The rats are placed in the pool 4 times per day for 5 days and the time required to find the platform in recorded (maximum duration 5 minutes). This time becomes shorter as the rats learn the task. On day 14 the two groups of rats are further subdivided into four groups. Six rats from each of the initial two groups receive saline injections while the remaining six rats from each initial group receive scopolamine (2 mg/kg) prior to being required to find the platform which has been moved to a new location (3 trials, maximum duration 3 minutes within 30 minutes of receiving either saline or scopolamine injection. On day 15 the procedure for day 14 was repeated with the platform remaining located in the position designated on day 14. On day 16, the procedure from day 14 was again followed except that the platform was moved to a location on the opposite side of the pool. On day 17 the procedure followed on day 14 was repeated except that the platform remains in the location designated on day 16. In each instance the time to locate the platform is recorded.
This experiment was repeated twice using 24 rats each time. The data from the two experiments was combined. One CVT-E001 treated rat died from accidental administration of CVT-E001 into the lungs.
Statistical analysis was by analysis of variance on log transformed data. As a posteriori test of significance were performed using the Newman-Keulstest.

[7] = system: PC12 (pheochromocytoma) cell lines; experiment: neurite outgrowth in PC12 cells; format: cell-based; conditions: seven days after treatment; FIGS. 26, 27
Description: PC12 cells were seeded and maintained in 100 cm^2 tissue culture dishes at 37° C. in RRMI1640 containing 1% antibiotics, 10% heated inactivated horse serum and 5% fetal bovine serum in a water saturated atmosphere of 95% air and 5% CO2. NIE-115 cells were maintained in a flask in 90% DMEM (Dulbecco's Modified Eagle Medium, Gibco, Grand Island, N.Y., USA) with 10% FBS and antibiotic PNS (penicillin, neomycin streptomycin). The culture plates were maintained in a temperature-controlled (37° C.) humidified atmosphere consisting of 95% room air and 5% CO2. The cells were mechanically dislodged for the experiment by forceful aspiration of the medium through a Pasteur pipette and plated in 35 mm collagen-coated tissue culture dishes containing a total of 2.0 ml of complete medium at a density of 1×10^4 cells/ml. […]
The cellular response to Nerve Growth Factor (NGF) and samples were determined by counting the number of cells contained processes in PC12 cells. […]
The cells and neurites were counted as follows.
Cells with circular or global shapes and no neurite outgrowth were scored as 0 (S0).
Cells with more than two small neurites on the cell bodies were scored as S2.
Cells with one or two neurites with the length of at least two times diameter as their body were scored as S3.
Cells with more than two long neurites were scored as S4.
The neurite index was calculated as below: […]

[8] = system: PC12 (pheochromocytoma) cell lines; conditions: literature; cited from earlier work

Row | Compound | effect on choline uptake (FIG. 1) [1] | choline uptake, previously demonstrated [2] | neurite outgrowth by NGF [4] | neurite outgrowth without NGF [4] | learning and memory [5] | further results
1 | C[N+]1(C)CCOC(O)(c2ccc(-c3ccc(C4(O)C[N+](C)(C)CCO4)cc3)cc2)C1 (stereo not shown) [HC3] | inhibits choline uptake | inhibit choline uptake |  |  |  | 
2 | CC(C)=CCC[C@](C)(O[C@@H]1O[C@H](CO[C@@H]2O[C@H](CO)[C@@H](O)[C@H](O)[C@H]2O)[C@@H](O)[C@H](O)[C@H]1O)[C@H]1CC[C@]2(C)[C@@H]1[C@H](O)C[C@@H]1[C@@]3(C)CC[C@H](O[C@@H]4O[C@H](CO)[C@@H](O)[C@H](O)[C@H]4O[C@@H]4O[C@H](CO)[C@@H](O)[C@H](O)[C@H]4O)C(C)(C)[C@@H]3CC[C@]12C [Rb1, ginsenoside Rb1] | promotes choline uptake | increase choline uptake into synaptosomes | enhance neurite outgrowth of dorsal and sympathetic ganglia | no effect on its own | enhance learning and memory; also recorded: improve memory in experimental animals | stimulation of choline uptake (in words) ([1]; Table 3): significantly stimulate choline uptake; potency ranking, choline uptake ([1]; Table 3, CVT-E001 contains 8.1% Rb1, 32.4% total ginsenosides, n = 4): CVTE001 > TS > Rb1; choline uptake (in words) [3]: increase choline uptake
3 | CC(C)=CCC[C@](C)(O[C@@H]1O[C@H](CO)[C@@H](O)[C@H](O)[C@H]1O)[C@H]1CC[C@]2(C)[C@@H]1[C@H](O)C[C@@H]1[C@@]3(C)CC[C@H](O[C@@H]4O[C@H](CO)[C@@H](O)[C@H](O)[C@H]4O[C@@H]4O[C@H](CO)[C@@H](O)[C@H](O)[C@H]4O)C(C)(C)[C@@H]3CC[C@]12C [Rd, ginsenoside Rd] |  |  | enhance neurite outgrowth of dorsal and sympathetic ganglia | no effect on its own |  | 
4 | CC(C)=CCC[C@](C)(O[C@@H]1O[C@H](CO)[C@@H](O)[C@H](O)[C@H]1O)[C@H]1CC[C@]2(C)[C@@H]1[C@H](O)C[C@@H]1[C@@]3(C)CC[C@H](O)C(C)(C)[C@@H]3[C@@H](O[C@@H]3O[C@H](CO)[C@@H](O)[C@H](O)[C@H]3O)C[C@]12C [Rg1, ginsenoside Rg1] |  |  |  |  | enhance learning and memory; also recorded: improve memory in experimental animals | 
5 | CN1[C@@H]2C[C@@H](OC(=O)[C@H](CO)c3ccccc3)C[C@H]1[C@@H]1O[C@@H]12 [scopolamine] |  |  |  |  |  | latency remembering platform location, combined trials ([6]; day 15, scopolamine 2 mg/kg, CVT-E001 200 mg/kg/day, FIG. 19): significantly greater latency than all other groups; latency to second new platform location, trial 3 ([6]; day 16, scopolamine 2 mg/kg, FIG. 20): demonstrated a scopolamine induced learning deficit; latency remembering second platform location, first trial ([6]; day 17, scopolamine 2 mg/kg with or without CVT-E001 200 mg/kg/day, FIG. 22): significantly impaired; latency remembering second platform location, combined trials ([6]; day 17, scopolamine 2 mg/kg with or without CVT-E001 200 mg/kg/day, FIG. 23): demonstrate a learning deficit
6 | NGF: Nerve Growth Factor, prototype neurotrophin |  |  |  |  |  | neurite outgrowth in PC12 [7]: increased neurite outgrowth in PC12 in a dose-dependent manner; PC12 response to NGF treatment [8]: neurite outgrowth and electrical excitability
